Consider 32 molecules from patent US20130303532A1, “IMIDAZOPYRAZINES FOR USE AS MPS-1 AND TKK INHIBITORS IN THE TREATMENT HYPERPROLIFERATIVE DISORDERS” (BAYER INTELLECTUAL PROPERTY GmbH, priority 2010, published 2013).

The first experiment addresses T1, human kinase Mps-1 (Homo sapiens, UniProt P33981).
T1 construct: N-terminally GST-tagged human full length recombinant Mps-1 kinase; GST (N); purchased Invitrogen, Karslruhe, Germany PV4071
T1 sequence (P33981 1-857): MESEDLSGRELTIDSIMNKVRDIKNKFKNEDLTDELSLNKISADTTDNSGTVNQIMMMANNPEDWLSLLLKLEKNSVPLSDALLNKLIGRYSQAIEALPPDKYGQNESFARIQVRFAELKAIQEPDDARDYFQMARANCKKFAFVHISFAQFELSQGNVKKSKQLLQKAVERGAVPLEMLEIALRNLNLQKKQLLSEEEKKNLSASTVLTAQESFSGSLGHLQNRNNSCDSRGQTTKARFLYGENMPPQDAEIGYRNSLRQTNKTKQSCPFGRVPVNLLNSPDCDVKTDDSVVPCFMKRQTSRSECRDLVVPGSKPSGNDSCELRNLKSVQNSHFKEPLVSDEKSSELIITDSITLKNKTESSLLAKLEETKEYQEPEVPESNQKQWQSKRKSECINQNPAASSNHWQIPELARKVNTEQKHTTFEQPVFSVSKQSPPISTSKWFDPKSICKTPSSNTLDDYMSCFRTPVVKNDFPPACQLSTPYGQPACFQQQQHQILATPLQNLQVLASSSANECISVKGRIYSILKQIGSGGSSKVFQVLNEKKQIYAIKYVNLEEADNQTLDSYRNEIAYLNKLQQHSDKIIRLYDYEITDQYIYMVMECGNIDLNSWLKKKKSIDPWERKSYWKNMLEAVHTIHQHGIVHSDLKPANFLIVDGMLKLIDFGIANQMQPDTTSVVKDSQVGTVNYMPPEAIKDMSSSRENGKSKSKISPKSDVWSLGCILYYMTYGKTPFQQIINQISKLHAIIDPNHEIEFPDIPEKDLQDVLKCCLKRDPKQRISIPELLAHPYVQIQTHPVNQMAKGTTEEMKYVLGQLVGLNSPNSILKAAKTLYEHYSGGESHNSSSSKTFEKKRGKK
The experiment in a line: Mps-1 kinase assay (TR-FRET). The experiment is classed as biochemical. The following applies: Mps1 IC50 [nM], N-terminally GST-tagged human full length recombinant Mps-1; 10 μM ATP; 1 μM biotinylated peptide substrate; 60 min at 22° C.
Consider `O=C(NC1CC1)c1ccc(-c2cnc3c(NCc4ccn[nH]4)nccn23)cc1` [Example 4-4, N-cyclopropyl-4-{8-[(1H-pyrazol-5-ylmethyl)amino]imi-dazo[1,2-a]pyrazin-3-yl}benzamide], for which the 50% inhibitory concentration (IC50) is 69.8 nM.

In the case of `Cc1cc(-c2cnc3c(NCC(F)(F)F)nccn23)ccc1C(=O)NC1CC1` [Example 7-100], the IC50 worked out at 217 nM.

On to `Cc1ccc(CNc2nccn3c(-c4ccc(C(=O)NC5CC5)cc4)cnc23)cc1` [Example 7-22, N-cyclopropyl-4-{8-[(4-methylbenzyl)amino]imi-dazo[1,2-a]pyrazin-3-yl}benzamide], for which the IC50 was 21 nM.

In the case of `O=C(NC1CC1)c1ccc(-c2cnc3c(NCc4cccs4)nccn23)cc1O` [Example 7-76, N-cyclopropyl-2-hydroxy-4-{8-[(thiophen-2-ylmethyl)amino]imi-dazo[1,2-a]pyrazin-3-yl}benzamide], the IC50 came to 35.8 nM.

With `CC(C)CNc1nccn2c(-c3ccc(C(=O)NC4CC4)cc3F)cnc12` [Example 1-3, N-cyclopropyl-3-fluoro-4-{8-[(2-methylpropyl)amino]imi-dazo[1,2-a]pyrazin-3-yl}benzamide], the IC50 is 9 nM.

As to `Cc1cc(-c2cnc3c(NCCCCO)nccn23)ccc1C(=O)NC1CC1` [Example 7-99, N-cyclopropyl-4-{8-[(4-hydroxybutyl)amino]imi-dazo[1,2-a]pyrazin-3-yl}-2-methylbenzamide], the concentration for half-maximal inhibition (IC50) was 70.8 nM.

Regarding `Cn1cc(CNc2nccn3c(-c4ccc(C(=O)NC5CC5)c(Cl)c4)cnc23)cn1` [Example 7-62, 2-chloro-N-cyclopropyl-4-(8-{[(1-methyl-1H-pyrazol-4-yl)methyl]amino}imi-dazo[1,2-a]pyrazin-3-yl)benzamide], the IC50 came out at 308 nM.

On to `Cc1cc(-c2cnc3c(NCC(F)F)nccn23)ccc1C(=O)NC1CC1` [Example 7-118, N-cyclopropyl-4-{8-[(2,2-difluoroethyl)amino]imi-dazo[1,2-a]pyrazin-3-yl}-2-methylbenzamide], for which the concentration for half-maximal inhibition (IC50) stood at 70.3 nM.

On to `N#CCCNc1nccn2c(-c3ccc(C(=O)NC4CC4)c(Cl)c3)cnc12` [Example 7-52, 2-chloro-4-{8-[(2-cyanoethyl)amino]imi-dazo[1,2-a]pyrazin-3-yl}-N-cyclopropylbenzamide], for which the concentration for half-maximal inhibition (IC50) was found to be 272 nM.

Turning to `CC(C)CNc1nccn2c(-c3ccc(C(=O)NC4CC4)c(Cl)c3)cnc12` [Example 7-51, 2-chloro-N-cyclopropyl-4-{8-[(2-methylpropyl)amino]imi-dazo[1,2-a]pyrazin-3-yl}benzamide], the IC50 worked out at 15.7 nM.

Turning to `Cc1cc(-c2cnc3c(NCC4CCCO4)nccn23)ccc1C(=O)NC1CC1` (centres unmarked) [Example 7-94, N-cyclopropyl-2-methyl-4-{8-[(tetrahydrofuran-2-ylmethyl)amino]imi-dazo[1,2-a]pyrazin-3-yl}benzamide], the IC50 stood at 80.8 nM.

On to `Cc1cc(-c2cnc3c(NCCC#N)nccn23)ccc1C(=O)NC1CC1` [Example 7-111, 4-{8-[(2-cyanoethyl)amino]imi-dazo[1,2-a]pyrazin-3-yl}-N-cyclopropyl-2-methylbenzamide], for which the 50% inhibitory concentration (IC50) is 49.7 nM.

Turning to `O=C(NC1CC1)c1ccc(-c2cnc3c(NCc4ccco4)nccn23)cc1O` [Example 7-79, N-cyclopropyl-4-{8-[(furan-2-ylmethyl)amino]imi-dazo[1,2-a]pyrazin-3-yl}-2-hydroxybenzamide], the IC50 came out at 77.3 nM.

On to `O=C(NC1CC1)c1ccc(-c2cnc3c(NCC(F)(F)C(F)(F)F)nccn23)cc1Cl` [Example 7-53, 2-chloro-N-cyclopropyl-4-{8-[(2,2,3,3,3-pentafluoropropyl)amino]imi-dazo[1,2-a]pyrazin-3-yl}benzamide], for which the concentration for half-maximal inhibition (IC50) came to 106 nM.

As to `Cc1cc(-c2cnc3c(NCc4ccn[nH]4)nccn23)ccc1C(=O)NC1CC1` [Example 5-3, N-cyclopropyl-2-methyl-4-{8-[(1H-pyrazol-5-ylmethyl)amino]imi-dazo[1,2-a]pyrazin-3-yl}benzamide], the IC50 is 86.7 nM.

Consider `NC(=O)CCNc1nccn2c(-c3ccc(C(=O)NC4CC4)c(Cl)c3)cnc12` [Example 7-54, 4-{8-[(3-amino-3-oxopropyl)amino]imi-dazo[1,2-a]pyrazin-3-yl}-2-chloro-N-cyclopropylbenzamide], for which the IC50 was determined as 4870 nM.

As for `Cn1nccc1CNc1nccn2c(-c3ccc(C(=O)NC4CC4)c(Cl)c3)cnc12` [Example 7-61, 2-chloro-N-cyclopropyl-4-(8-{[(1-methyl-1H-pyrazol-5-yl)methyl]amino}imi-dazo[1,2-a]pyrazin-3-yl)benzamide], the half-maximal inhibitory concentration (IC50) amounted to 269 nM.

For `O=C(NC1CC1)c1ccc(-c2cnc3c(NCc4ccc(Cl)s4)nccn23)cc1Cl` [Example 7-65, 2-chloro-4-(8-{[(5-chlorothiophen-2-yl)methyl]amino}imi-dazo[1,2-a]pyrazin-3-yl)-N-cyclopropylbenzamide], the half-inhibitory concentration (IC50) came to 25 nM.

Consider `O=C(NC1CC1)c1ccc(-c2cnc3c(NCc4ccco4)nccn23)cc1Cl` [Example 7-50, 2-chloro-N-cyclopropyl-4-{8-[(furan-2-ylmethyl)amino]imi-dazo[1,2-a]pyrazin-3-yl}benzamide], for which the IC50 was found to be 209 nM.

In the case of `Cc1cc(-c2cnc3c(NCc4cccs4)nccn23)ccc1C(=O)NC1CC1` [Example 7-102, N-cyclopropyl-2-methyl-4-{8-[(thiophen-2-ylmethyl)amino]imi-dazo[1,2-a]pyrazin-3-yl}benzamide], the 50% inhibitory concentration (IC50) was 18.7 nM.

Turning to `Cc1cc(-c2cnc3c(NCc4ccccc4O)nccn23)ccc1C(=O)NC1CC1` [Example 5-2, N-cyclopropyl-4-{8-[(2-hydroxybenzyl)amino]imi-dazo[1,2-a]pyrazin-3-yl}-2-methylbenzamide], the IC50 turned out to be 24.4 nM.

Still in this experiment, the particulars now being: N-terminally GST-tagged human full length recombinant Mps-1; 10 μM ATP; 1 μM biotinylated peptide substrate; 60 min at 22° C.; read-out: Mps1 IC50.
For the molecule `Cc1cc(-c2cnc3c(NCC(F)(F)C(F)(F)F)nccn23)ccc1C(=O)NC1CC1` [Example 7-112, N-cyclopropyl-2-methyl-4-{8-[(2,2,3,3,3-pentafluoropropyl)ami-no]imidazo[1,2-a]pyrazin-3-yl}benzamide], the IC50 came out at 81.6 nM.

For `O=C(NC1CC1)c1ccc(-c2cnc3c(NCCCO)nccn23)cc1` [Example 3-1, N-cyclopropyl-4-[8-[(3-hydroxypropyl)amino]imidazo[1,2-a]pyrazin-3-yl]benzamide], the IC50 amounted to 54.5 nM.

On to `COc1cc(C(=O)NC2CC2)ccc1-c1cnc2c(NCCCN)nccn12` [Example 3-4, 4-{8-[(3-Aminopropyl)amino]imidazo[1,2-a]pyrazin-3-yl}-N-cyclopropyl-3-methoxybenzamide], for which the IC50 came out at 421 nM.

Take `CS(=O)(=O)CCCNc1nccn2c(-c3ccc(C(=O)NC4CC4)cc3)cnc12` [Example 4-2, N-cyclopropyl-4-(8-{[3-(methylsulfonyl)propyl]amino}imidazo[1,2-a]pyrazin-3-yl)benzamide]: the 50% inhibitory concentration (IC50) worked out at 87.4 nM.

`O=C(NC1CC1)c1ccc(-c2cnc3c(NCc4ccc5c(c4)OCO5)nccn23)cc1` [Example 7-18, 4-{8-[(1,3-benzodioxol-5-ylmethyl)amino]imidazo[1,2-a]pyrazin-3-yl}-N-cyclopropylbenzamide]: the IC50 came out at 28.4 nM.

For `CCNc1nccn2c(-c3ccc(C(=O)NC4CC4)c(C)c3)cnc12` [Example 7-103, N-cyclopropyl-4-[8-(ethylamino)imidazo[1,2-a]pyrazin-3-yl]-2-methylbenzamide], the IC50 stood at 145 nM.

For `COC(=O)CCCNc1nccn2c(-c3ccc(C(=O)NC4CC4)cc3)cnc12` [Example 4-5, methyl 4-({3-[4-(cyclopropylcarbamoyl)phen-yl]imidazo[1,2-a]pyrazin-8-yl}amino)butanoate], the 50% inhibitory concentration (IC50) is 103 nM.

Consider `CCCCNc1nccn2c(-c3ccc(C(=O)NC4CC4)cc3)cnc12` [Example 4-7, 4-[8-(butylamino)imidazo[1,2-a]pyrazin-3-yl]-N-cyclopropylbenzamide], for which the IC50 was 37.2 nM.

`CCNc1nccn2c(-c3ccc(C(=O)NC4CC4)c(Cl)c3)cnc12` [Example 7-42, 2-chloro-N-cyclopropyl-4-[8-(ethylamino)imidazo[1,2-a]pyrazin-3-yl]benzamide]: the concentration for half-maximal inhibition (IC50) was 17000 nM.

With `CC(C)CNc1nccn2c(-c3ccc(C(=O)NC4CC4)c(Cl)c3)cnc12` [Example 6-1, 2-chloro-N-cyclopropyl-4-{8-[(2-methylpropyl)amino]imidazo[1,2-a]pyrazin-3-yl}benzamide], the IC50 came to 28 nM.

Take `O=C(NC1CC1)c1ccc(-c2cnc3c(NCCN4CCCCC4)nccn23)cc1` [Example 7-8, N-cyclopropyl-4-(8-{[2-(piperidin-1-yl)ethyl]amino}imidazo[1,2-a]pyrazin-3-yl)benzamide]: the IC50 was 1950 nM.
